How the values were obtained:
[1] = biological target: T1, Human neuropeptide Y (NPY-Y1) (Homo sapiens, UniProt P25929); experiment: Radioligand binding, human neuropeptide Y NPY-Y1 membranes, FlashPlate, [125I]-PYY; settings: compound at 10 μM, [125I]-PYY; for A9: inhibition of radioligand binding: human NPY-Y1 membranes
T1 construct: purchased Perkin Elmer Biosignal
T1 sequence (P25929 1-384): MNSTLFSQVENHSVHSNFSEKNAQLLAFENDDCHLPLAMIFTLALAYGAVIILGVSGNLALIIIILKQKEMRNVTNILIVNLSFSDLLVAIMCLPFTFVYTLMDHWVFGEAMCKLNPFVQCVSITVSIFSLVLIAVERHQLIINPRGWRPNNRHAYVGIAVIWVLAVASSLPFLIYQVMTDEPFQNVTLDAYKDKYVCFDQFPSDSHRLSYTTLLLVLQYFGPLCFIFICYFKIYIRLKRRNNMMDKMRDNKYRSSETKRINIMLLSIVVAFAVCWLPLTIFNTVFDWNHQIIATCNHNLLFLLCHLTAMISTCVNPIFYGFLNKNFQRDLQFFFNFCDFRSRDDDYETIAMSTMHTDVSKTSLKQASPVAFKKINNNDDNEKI
Method in brief: (§1)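 Cloned human receptor membranes were coated onto FlashPlate wells and incubated with radioligand and compound (added from a 0.5 mM DMSO daughter plate) for 1 hour at room temperature in the dark. Scintillation counting gave percent inhibition, with DMSO defining total and reference ligand defining non-specific binding.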

Human μ-opioid (MOP) = biological target: T2, Human μ-opioid (MOP) (Homo sapiens, UniProt P35372); experiment: Radioligand binding, human μ-opioid (MOP) membranes, FlashPlate, [3H]-Naloxone; settings: compound at 10 μM, [3H]-Naloxone; for A7: inhibition of radioligand binding: human MOP membranes
T2 construct: purchased Perkin Elmer Biosignal
Method in brief: as §1

Human Melanocortin (MC3) = biological target: T3, Human Melanocortin (MC3) (Homo sapiens, UniProt P41968); experiment: Radioligand binding, human melanocortin MC3 membranes, FlashPlate, [125I]-NDP-αMSH; settings: compound at 10 μM, [125I]-NDP-αMSH; for A3: inhibition of radioligand binding: human MC3 membranes
T3 construct: purchased Perkin Elmer Biosignal
Method in brief: as §1

Human κ-Opioid (KOP) = biological target: T4, Human κ-Opioid (KOP) (Homo sapiens, UniProt P41145); experiment: Radioligand binding, human κ-opioid (KOP) membranes, filtration, [3H]-Diprenorphine; settings: compound at 10 μM, [3H]-Diprenorphine; for A2: inhibition of radioligand binding: human KOP membranes
T4 construct: purchased Perkin Elmer Biosignal
Method in brief: (§2)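 Filtration binding on cloned human receptor membranes (1 Unit/well), [125I]-Substance P for NK1 and [3H]-Diprenorphine for KOP, 1 h at room temperature. Filters PEI-presoaked, washed with cold 50 mM Tris-HCl pH 7.4, counted by scintillation; percent inhibition calculated, reference ligand defining non-specific binding.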

Mouse urotensin (mUR2) = biological target: T5, Mouse urotensin (mUR2) (Mus musculus, UniProt Q8VIH9); experiment: Radioligand binding, mouse urotensin mUR2 membranes, FlashPlate, [125I]-Urotensin II; settings: compound at 10 μM, [125I]-Urotensin II; for A11: inhibition of radioligand binding: mouse mUR2 membranes
T5 construct: purchased Perkin Elmer Biosignal
T5 sequence (Q8VIH9 1-385): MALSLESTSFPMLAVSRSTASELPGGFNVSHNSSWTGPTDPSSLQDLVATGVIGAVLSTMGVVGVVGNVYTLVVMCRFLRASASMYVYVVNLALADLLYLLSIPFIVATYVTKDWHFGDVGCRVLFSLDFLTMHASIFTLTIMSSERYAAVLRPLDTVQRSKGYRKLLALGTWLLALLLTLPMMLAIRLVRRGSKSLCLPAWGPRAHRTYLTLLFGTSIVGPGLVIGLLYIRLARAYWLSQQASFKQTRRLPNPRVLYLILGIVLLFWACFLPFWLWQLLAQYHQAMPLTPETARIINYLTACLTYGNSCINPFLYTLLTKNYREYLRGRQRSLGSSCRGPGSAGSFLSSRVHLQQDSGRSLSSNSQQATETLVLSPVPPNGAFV
Method in brief: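 Cloned mouse urotensin (mUR2) receptor membranes from Perkin Elmer Biosignal were immobilized in FlashPlate microplates using a proprietary coating. Each well got 19.5 μl buffer, then 0.5 μl of DMSO, reference ligand, or compound. Adding 5 μl of [125I]-Urotensin II, diluted to 5× final concentration in binding buffer, started binding. Plates were sealed with TopSeal-A and incubated 1 hour at room temperature in the dark. Wells were counted for 30 seconds each on a TopCount after a 60-second delay, and percentage inhibition was calculated.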

Human opioid (ORL1) = biological target: T6, Human opioid (ORL1) (Homo sapiens, UniProt P41146); experiment: Radioligand binding, human opioid ORL1 membranes, FlashPlate, [125I]-Nociceptin; settings: compound at 10 μM, [125I]-Nociceptin; for A10: inhibition of radioligand binding: human ORL1 membranes
T6 construct: purchased Perkin Elmer Biosignal
Method in brief: as §1

Human Melanocortin (MC4) = biological target: T7, Human Melanocortin (MC4) (Homo sapiens, UniProt P32245); experiment: Radioligand binding, human melanocortin MC4 membranes, FlashPlate, [125I]-NDP-αMSH; settings: compound at 10 μM, [125I]-NDP-αMSH; for A4: inhibition of radioligand binding: human MC4 membranes
T7 construct: purchased Perkin Elmer Biosignal
Method in brief: as §1

Human melanocortin (MC5) = biological target: T8, Human melanocortin (MC5) (Homo sapiens, UniProt P33032); experiment: Radioligand binding, human melanocortin MC5 membranes, FlashPlate, [125I]-NDP-αMSH; settings: compound at 10 μM, [125I]-NDP-αMSH; for A5: inhibition of radioligand binding: human MC5 membranes
T8 construct: purchased Perkin Elmer Biosignal
Method in brief: as §1

[2] = biological target: T9, Human melanin-concentrating hormone (MCH1) (Homo sapiens, UniProt Q99705); experiment: Radioligand binding, human melanin-concentrating hormone MCH1 membranes, FlashPlate, [125I]-S36057; settings: compound at 10 μM; for A6: inhibition of radioligand binding: [125I]-S36057, human MCH1 membranes
T9 construct: purchased Perkin Elmer Biosignal
Method in brief: as §1

Human neurokinin (NK1) = biological target: T10, Human neurokinin (NK1) (Homo sapiens, UniProt P25103); experiment: Radioligand binding, human neurokinin NK1 membranes, filtration, [125I]-Substance P; settings: compound at 10 μM, [125I]-Substance P; for A8: inhibition of radioligand binding: human NK1 membranes
T10 construct: purchased Perkin Elmer Biosignal
Method in brief: as §2

Human δ-opioid (DOP) = biological target: T11, Human δ-opioid (DOP) (Homo sapiens, UniProt P41143); experiment: Radioligand binding, human δ-opioid (DOP) membranes, FlashPlate, [3H]-Bremazocine; settings: compound at 10 μM, [3H]-Bremazocine; for A1: inhibition of radioligand binding: human DOP membranes
T11 construct: purchased Perkin Elmer Biosignal
Method in brief: as §1

T3 sequence (P41968 whole entry): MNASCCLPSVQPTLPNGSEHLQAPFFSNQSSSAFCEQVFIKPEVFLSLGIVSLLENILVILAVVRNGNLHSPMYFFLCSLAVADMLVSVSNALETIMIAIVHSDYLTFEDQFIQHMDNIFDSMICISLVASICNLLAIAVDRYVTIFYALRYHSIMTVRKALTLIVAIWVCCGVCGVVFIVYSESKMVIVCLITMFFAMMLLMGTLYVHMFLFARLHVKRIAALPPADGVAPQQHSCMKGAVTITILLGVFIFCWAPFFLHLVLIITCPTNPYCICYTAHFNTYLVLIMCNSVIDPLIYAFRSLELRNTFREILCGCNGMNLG
T10 sequence (P25103 whole entry): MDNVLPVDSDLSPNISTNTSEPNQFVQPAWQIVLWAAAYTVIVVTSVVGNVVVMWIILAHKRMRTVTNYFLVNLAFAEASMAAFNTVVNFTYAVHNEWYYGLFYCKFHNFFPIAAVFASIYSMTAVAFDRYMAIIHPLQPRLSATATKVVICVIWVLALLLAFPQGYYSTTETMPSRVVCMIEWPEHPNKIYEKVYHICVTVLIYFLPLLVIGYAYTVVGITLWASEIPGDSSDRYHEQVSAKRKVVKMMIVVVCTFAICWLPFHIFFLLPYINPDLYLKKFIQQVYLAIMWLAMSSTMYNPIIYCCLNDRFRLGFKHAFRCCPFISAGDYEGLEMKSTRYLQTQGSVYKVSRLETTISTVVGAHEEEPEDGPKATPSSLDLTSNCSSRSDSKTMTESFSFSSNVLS
T8 sequence (P33032 whole entry): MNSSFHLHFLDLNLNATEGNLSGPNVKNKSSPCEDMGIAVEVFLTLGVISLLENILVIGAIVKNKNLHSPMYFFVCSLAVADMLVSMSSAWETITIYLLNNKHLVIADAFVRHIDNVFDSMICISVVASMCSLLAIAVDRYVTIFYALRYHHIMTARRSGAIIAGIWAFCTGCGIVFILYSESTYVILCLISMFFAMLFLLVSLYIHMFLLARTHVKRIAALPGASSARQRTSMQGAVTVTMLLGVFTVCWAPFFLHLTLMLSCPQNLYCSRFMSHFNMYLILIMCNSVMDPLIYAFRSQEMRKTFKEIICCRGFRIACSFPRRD
T4 sequence (P41145 whole entry): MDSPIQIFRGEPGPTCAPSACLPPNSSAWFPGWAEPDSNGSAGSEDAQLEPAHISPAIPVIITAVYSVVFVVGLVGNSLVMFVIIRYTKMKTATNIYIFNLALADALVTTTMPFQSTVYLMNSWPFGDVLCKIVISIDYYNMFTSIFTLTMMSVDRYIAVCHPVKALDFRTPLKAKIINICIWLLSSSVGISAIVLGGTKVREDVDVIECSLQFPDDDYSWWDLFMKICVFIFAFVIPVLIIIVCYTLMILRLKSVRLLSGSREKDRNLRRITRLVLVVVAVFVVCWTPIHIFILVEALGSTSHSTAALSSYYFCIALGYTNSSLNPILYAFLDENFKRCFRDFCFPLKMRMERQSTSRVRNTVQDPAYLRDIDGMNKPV
T7 sequence (P32245 whole entry): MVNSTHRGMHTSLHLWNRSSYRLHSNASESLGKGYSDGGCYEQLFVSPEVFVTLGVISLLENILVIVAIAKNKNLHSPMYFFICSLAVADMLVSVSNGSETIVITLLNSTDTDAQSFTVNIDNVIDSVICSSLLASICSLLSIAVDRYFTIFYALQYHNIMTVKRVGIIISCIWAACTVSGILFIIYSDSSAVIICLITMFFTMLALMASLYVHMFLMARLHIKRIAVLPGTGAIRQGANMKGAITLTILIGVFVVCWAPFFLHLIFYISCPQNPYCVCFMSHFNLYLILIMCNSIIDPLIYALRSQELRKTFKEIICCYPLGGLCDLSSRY
T11 sequence (P41143 whole entry): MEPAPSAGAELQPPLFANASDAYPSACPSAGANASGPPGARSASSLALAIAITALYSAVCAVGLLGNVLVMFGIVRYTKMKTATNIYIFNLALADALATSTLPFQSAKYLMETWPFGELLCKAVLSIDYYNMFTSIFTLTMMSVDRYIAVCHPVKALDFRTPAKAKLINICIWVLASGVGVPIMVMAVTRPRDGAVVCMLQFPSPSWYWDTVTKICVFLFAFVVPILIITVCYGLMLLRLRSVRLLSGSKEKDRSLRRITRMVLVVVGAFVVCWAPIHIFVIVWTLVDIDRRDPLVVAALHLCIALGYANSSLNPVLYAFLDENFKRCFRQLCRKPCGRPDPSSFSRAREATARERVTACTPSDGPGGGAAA
T9 sequence (Q99705 whole entry): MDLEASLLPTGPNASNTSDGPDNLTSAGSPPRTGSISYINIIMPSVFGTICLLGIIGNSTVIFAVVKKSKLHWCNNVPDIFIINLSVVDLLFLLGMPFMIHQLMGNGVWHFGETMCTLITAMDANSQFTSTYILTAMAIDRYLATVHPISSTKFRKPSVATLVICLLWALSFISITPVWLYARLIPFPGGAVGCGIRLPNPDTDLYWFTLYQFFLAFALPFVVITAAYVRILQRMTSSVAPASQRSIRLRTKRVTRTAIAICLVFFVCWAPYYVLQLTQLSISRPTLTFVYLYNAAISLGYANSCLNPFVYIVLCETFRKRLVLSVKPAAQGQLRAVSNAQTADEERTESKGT
T6 sequence (P41146 whole entry): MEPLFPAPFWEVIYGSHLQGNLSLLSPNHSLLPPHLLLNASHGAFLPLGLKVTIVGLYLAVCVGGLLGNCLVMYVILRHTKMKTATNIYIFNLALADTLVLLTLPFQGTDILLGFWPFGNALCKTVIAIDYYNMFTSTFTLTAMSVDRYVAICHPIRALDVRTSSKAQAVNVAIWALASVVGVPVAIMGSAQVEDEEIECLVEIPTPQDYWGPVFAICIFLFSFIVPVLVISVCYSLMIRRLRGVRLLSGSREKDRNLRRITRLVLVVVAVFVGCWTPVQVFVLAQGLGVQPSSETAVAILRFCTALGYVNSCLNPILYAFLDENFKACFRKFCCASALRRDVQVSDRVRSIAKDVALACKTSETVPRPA
T2 sequence (P35372 whole entry): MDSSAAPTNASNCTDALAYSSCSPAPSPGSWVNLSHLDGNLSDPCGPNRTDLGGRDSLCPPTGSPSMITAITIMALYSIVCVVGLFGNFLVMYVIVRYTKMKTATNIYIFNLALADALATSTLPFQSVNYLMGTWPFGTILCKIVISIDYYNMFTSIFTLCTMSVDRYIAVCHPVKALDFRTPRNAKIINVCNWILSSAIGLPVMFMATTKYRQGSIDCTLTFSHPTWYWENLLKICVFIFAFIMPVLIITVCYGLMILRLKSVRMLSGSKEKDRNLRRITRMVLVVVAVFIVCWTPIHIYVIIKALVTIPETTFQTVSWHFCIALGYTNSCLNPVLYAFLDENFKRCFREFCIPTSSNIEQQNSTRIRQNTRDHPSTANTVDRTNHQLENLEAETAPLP

CO[C@H]1[C@H](O)[C@@H](COCc2ccc3ccccc3c2)OC(OCCc2ccccc2)[C@@H]1NC(=O)CNC(=N)N (stereo partly shown) [compound 113]
A9 radioligand binding, percentage inhibition [1]: − (“−” indicates less than 50% inhibition at 10 μM)
A7 radioligand binding, percentage inhibition (Human μ-opioid (MOP)): − (“−” indicates less than 50% inhibition at 10 μM)
A3 radioligand binding, percentage inhibition (Human Melanocortin (MC3)): − (“−” indicates less than 50% inhibition at 10 μM)
A2 radioligand binding, percentage inhibition (Human κ-Opioid (KOP)): − (“−” indicates less than 50% inhibition at 10 μM)
A11 radioligand binding, percentage inhibition (Mouse urotensin (mUR2)): − (“−” indicates less than 50% inhibition at 10 μM)
A10 radioligand binding, percentage inhibition (Human opioid (ORL1)): + (“+” indicates greater than 50% inhibition at 10 μM)
A4 radioligand binding, percentage inhibition (Human Melanocortin (MC4)): + (“+” indicates greater than 50% inhibition at 10 μM)
A5 radioligand binding, percentage inhibition (Human melanocortin (MC5)): + (“+” indicates greater than 50% inhibition at 10 μM)
A6 radioligand binding, percentage inhibition ([2]; [125I]-S36057): − (“−” indicates less than 50% inhibition at 10 μM)
A8 radioligand binding, percentage inhibition (Human neurokinin (NK1)): + (“+” indicates greater than 50% inhibition at 10 μM)
A1 radioligand binding, percentage inhibition (Human δ-opioid (DOP)): − (“−” indicates less than 50% inhibition at 10 μM)

COC[C@H]1OC(OCc2ccc(-c3ccccc3)cc2)[C@H](NC(=O)CNC(=N)N)[C@@H](OCc2cccc(O)c2)[C@@H]1O (stereo partly shown) [compound 129]
A9 radioligand binding, percentage inhibition [1]: − (“−” indicates less than 50% inhibition at 10 μM)
A7 radioligand binding, percentage inhibition (Human μ-opioid (MOP)): + (“+” indicates greater than 50% inhibition at 10 μM)
A3 radioligand binding, percentage inhibition (Human Melanocortin (MC3)): − (“−” indicates less than 50% inhibition at 10 μM)
A2 radioligand binding, percentage inhibition (Human κ-Opioid (KOP)): − (“−” indicates less than 50% inhibition at 10 μM)
A11 radioligand binding, percentage inhibition (Mouse urotensin (mUR2)): − (“−” indicates less than 50% inhibition at 10 μM)
A10 radioligand binding, percentage inhibition (Human opioid (ORL1)): − (“−” indicates less than 50% inhibition at 10 μM)
A4 radioligand binding, percentage inhibition (Human Melanocortin (MC4)): − (“−” indicates less than 50% inhibition at 10 μM)
A5 radioligand binding, percentage inhibition (Human melanocortin (MC5)): − (“−” indicates less than 50% inhibition at 10 μM)
A6 radioligand binding, percentage inhibition ([2]; [125I]-S36057): − (“−” indicates less than 50% inhibition at 10 μM)
A8 radioligand binding, percentage inhibition (Human neurokinin (NK1)): − (“−” indicates less than 50% inhibition at 10 μM)
A1 radioligand binding, percentage inhibition (Human δ-opioid (DOP)): − (“−” indicates less than 50% inhibition at 10 μM)

NCCC(=O)NC1C(OCc2ccccc2)OC(COCc2ccccc2)C(O)C1OCc1ccccc1 (stereo not shown) [compound 370]
A9: inhibition of radioligand binding, human neuropeptide Y (NPY-Y1) [1]: − (“−” indicates less than 50% inhibition at 10 μM)
A7: inhibition of radioligand binding, human μ-opioid (MOP) (Human μ-opioid (MOP)): − (“−” indicates less than 50% inhibition at 10 μM)
A3: inhibition of radioligand binding, human melanocortin (MC3) (Human Melanocortin (MC3)): − (“−” indicates less than 50% inhibition at 10 μM)
A2: inhibition of radioligand binding, human κ-opioid (KOP) (Human κ-Opioid (KOP)): − (“−” indicates less than 50% inhibition at 10 μM)
A11: inhibition of radioligand binding, mouse urotensin (mUR2) (Mouse urotensin (mUR2)): − (“−” indicates less than 50% inhibition at 10 μM)
A10: inhibition of radioligand binding, human opioid (ORL1) (Human opioid (ORL1)): − (“−” indicates less than 50% inhibition at 10 μM)
A4: inhibition of radioligand binding, human melanocortin (MC4) (Human Melanocortin (MC4)): − (“−” indicates less than 50% inhibition at 10 μM)
A5: inhibition of radioligand binding, human melanocortin (MC5) (Human melanocortin (MC5)): − (“−” indicates less than 50% inhibition at 10 μM)
A6: inhibition of radioligand binding, human melanin-concentrating hormone (MCH1) ([2]; [125I]-S36057): − (“−” indicates less than 50% inhibition at 10 μM)
A8: inhibition of radioligand binding, human neurokinin (NK1) (Human neurokinin (NK1)): + (“+” indicates greater than 50% inhibition at 10 μM)
A1: inhibition of radioligand binding, human δ-opioid (DOP) (Human δ-opioid (DOP)): − (“−” indicates less than 50% inhibition at 10 μM)

N=C(N)NCCC(=O)NC1C(OCc2ccc(Cl)cc2)OC(COCc2ccc3ccccc3c2)C(O)C1OCc1ccc(Cl)cc1 (stereo not shown) [compound 426]
A9: inhibition of radioligand binding [1]: + (“+” indicates greater than 50% inhibition at 10 μM)
A7: inhibition of radioligand binding (Human μ-opioid (MOP)): − (“−” indicates less than 50% inhibition at 10 μM)
A3: inhibition of radioligand binding (Human Melanocortin (MC3)): + (“+” indicates greater than 50% inhibition at 10 μM)
A2: inhibition of radioligand binding (Human κ-Opioid (KOP)): − (“−” indicates less than 50% inhibition at 10 μM)
A11: inhibition of radioligand binding (Mouse urotensin (mUR2)): − (“−” indicates less than 50% inhibition at 10 μM)
A10: inhibition of radioligand binding (Human opioid (ORL1)): + (“+” indicates greater than 50% inhibition at 10 μM)
A4: inhibition of radioligand binding (Human Melanocortin (MC4)): + (“+” indicates greater than 50% inhibition at 10 μM)
A5: inhibition of radioligand binding (Human melanocortin (MC5)): + (“+” indicates greater than 50% inhibition at 10 μM)
A6: inhibition of radioligand binding [2]: + (“+” indicates greater than 50% inhibition at 10 μM)
A8: inhibition of radioligand binding (Human neurokinin (NK1)): + (“+” indicates greater than 50% inhibition at 10 μM)
A1: inhibition of radioligand binding (Human δ-opioid (DOP)): − (“−” indicates less than 50% inhibition at 10 μM)

NCCC(=O)NC1C(OCc2ccc(Cl)cc2)OC(COCc2ccccc2)C(O)C1OCc1ccc(Cl)cc1 (single isomer, unassigned) [compound 473]
A9: inhibition of radioligand binding [1]: − (“−” indicates less than 50% inhibition at 10 μM)
A7: inhibition of radioligand binding (Human μ-opioid (MOP); 10 µM): + (“+” indicates greater than 50% inhibition at 10 μM)
A3: inhibition of radioligand binding (Human Melanocortin (MC3)): − (“−” indicates less than 50% inhibition at 10 μM)
A2: inhibition of radioligand binding (Human κ-Opioid (KOP)): − (“−” indicates less than 50% inhibition at 10 μM)
A11: inhibition of radioligand binding (Mouse urotensin (mUR2)): − (“−” indicates less than 50% inhibition at 10 μM)
A10: inhibition of radioligand binding (Human opioid (ORL1); 10 µM): − (“−” indicates less than 50% inhibition at 10 μM)
A4: inhibition of radioligand binding (Human Melanocortin (MC4)): − (“−” indicates less than 50% inhibition at 10 μM)
A5: inhibition of radioligand binding (Human melanocortin (MC5); 10 µM): + (“+” indicates greater than 50% inhibition at 10 μM)
A6: inhibition of radioligand binding ([2]; 10 µM): + (“+” indicates greater than 50% inhibition at 10 μM)
A8: inhibition of radioligand binding (Human neurokinin (NK1)): + (“+” indicates greater than 50% inhibition at 10 μM)
A1: inhibition of radioligand binding (Human δ-opioid (DOP)): − (“−” indicates less than 50% inhibition at 10 μM)
